Data on 20 molecules can be found in ChEMBL document CHEMBL5260844, “Optimization of PDE3A Modulators for SLFN12-Dependent Cancer Cell Killing” (ACS Med Chem Lett, 2019).

As usually defined, the EC50 is the concentration at which the effect is half-maximal.

The source made the active and inactive calls. The rule behind the calls is not given here.

The subject of one test is A549. Briefly: Cytotoxicity against human A549 cells assessed as cell growth inhibition upto 10 uM measured after 3 days by […] reagent based assay. The conditions noted are these: time 72.0 hrs.
Consider `C[C@@H]1CC(=O)NN=C1c1ccc(N)cc1`, for which the outcome was inactive.
On the same count and under the same terms, for `CC1(C)C(=O)NN=C1c1ccc(N)cc1` the value was “inactive”; for `CCN(CC)c1ccc(C2=NNC(=O)CC2C)cc1N` (stereo not given), “inactive”; for `CCNc1ccc(C2=NNC(=O)C[C@H]2C)cc1[N+](=O)[O-]`, “inactive”.
On the same count and under the same terms, the value for `C[C@@H]1CC(=O)NN=C1c1ccc(N2CCOCC2)cc1` was “inactive”.
Take `CC(=O)Nc1ccc(C2=NNC(=O)C[C@H]2C)cc1Br`: the result was inactive.
Still for that read-out and setting: for `CC(=O)Nc1ccc(C2=NNC(=O)C[C@H]2C)cc1N` the value was “inactive”; for `CCN(CC)c1ccc(C2=NNC(=O)CC2C)cc1NC(C)=O` (stereo not given), “inactive”.
Still for that read-out and setting: the value for `C[C@@H]1CC(=O)NN=C1c1ccc(N2CCOCC2)c(Cl)c1` was “inactive”; that for `CC1(C)C(=O)NN=C1c1ccc(Cl)cc1` was “inactive”; that for `CCN(CC)c1ccc(C2=NNC(=O)C[C@H]2C)cc1` was “inactive”.
Same read-out and setting: the value for `C[C@@H]1CC(=O)NN=C1c1ccc(F)cc1` was “inactive”.
Turning to `C[C@@H]1CC(=O)NN=C1c1ccc(I)cc1`, the result was inactive.
For `C[C@@H]1CC(=O)NN=C1c1ccc(-n2cnnc2)cc1`, the outcome was inactive.
Turning to `C#Cc1cc(C2=NNC(=O)C[C@H]2C)ccc1NC(C)=O`, the result was inactive.
On the same count and under the same terms, for `C[C@@H]1CC(=O)NN=C1c1ccc(C2=CCCCC2)cc1` the value was “inactive”; for `CC(=O)Nc1ccc(C2=NNC(=O)C[C@H]2C)cc1C(C)=O`, “inactive”.
On the same count and under the same terms, for `Cc1nc2cc(C3=NNC(=O)C[C@H]3C)ccc2[nH]1` the value was “inactive”.
Take `CCN(CC)c1ccc(C2=NNC(=O)C[C@H]2C)cc1[N+](=O)[O-]`: the result was inactive.
The same measure, in the same setting: for `C/C=C/c1ccc(C2=NNC(=O)C[C@H]2C)cc1` the value was “inactive”.

The test system of the next test is HeLa. Briefly: Cytotoxicity against human HeLa cells assessed as cell growth inhibition measured after 48 hrs by […] reagent based assay. In kind it is functional.
Conditions: not given
Take `C[C@@H]1CC(=O)NN=C1c1ccc(N)cc1`: the EC50 is more than 1000 nM.
Same read-out and setting: for `CC1(C)C(=O)NN=C1c1ccc(N)cc1` the value was more than 1000 nM; for `CCN(CC)c1ccc(C2=NNC(=O)CC2C)cc1N` (stereo not given), 240 nM.
Same read-out and setting: for `CCNc1ccc(C2=NNC(=O)C[C@H]2C)cc1[N+](=O)[O-]` the value was 1.1 nM; for `C[C@@H]1CC(=O)NN=C1c1ccc(N2CCOCC2)cc1`, 13 nM; for `CC(=O)Nc1ccc(C2=NNC(=O)C[C@H]2C)cc1Br`, 21 nM.
On the same count and under the same terms, the value for `CC(=O)Nc1ccc(C2=NNC(=O)C[C@H]2C)cc1N` was more than 1000 nM; that for `CCN(CC)c1ccc(C2=NNC(=O)CC2C)cc1NC(C)=O` (stereo not given) was more than 1000 nM.
On to `C[C@@H]1CC(=O)NN=C1c1ccc(N2CCOCC2)c(Cl)c1`, for which the EC50 was 4.5 nM.
Still for that read-out and setting: the value for `CC1(C)C(=O)NN=C1c1ccc(Cl)cc1` was more than 1000 nM; that for `CCN(CC)c1ccc(C2=NNC(=O)C[C@H]2C)cc1` was 3.3 nM.
On the same count and under the same terms, the value for `C[C@@H]1CC(=O)NN=C1c1ccc(F)cc1` was 410 nM; that for `C[C@@H]1CC(=O)NN=C1c1ccc(I)cc1` was 7.1 nM.
On the same count and under the same terms, the value for `C[C@@H]1CC(=O)NN=C1c1ccc(-n2cnnc2)cc1` was more than 1000 nM; that for `C#Cc1cc(C2=NNC(=O)C[C@H]2C)ccc1NC(C)=O` was 65 nM.
Turning to `C[C@@H]1CC(=O)NN=C1c1ccc(C2=CCCCC2)cc1`, the EC50 stood at 2.2 nM.
On the same count and under the same terms, for `CC(=O)Nc1ccc(C2=NNC(=O)C[C@H]2C)cc1C(C)=O` the value was 130 nM; for `Cc1nc2cc(C3=NNC(=O)C[C@H]3C)ccc2[nH]1`, more than 1000 nM; for `CCN(CC)c1ccc(C2=NNC(=O)C[C@H]2C)cc1[N+](=O)[O-]`, 3.8 nM.
On the same count and under the same terms, the value for `C/C=C/c1ccc(C2=NNC(=O)C[C@H]2C)cc1` was 8.8 nM.
